Assay [1] has as its system C. albicans. Briefly: Antifungal screen of matrix-synthesis aurones in 96-well plates, C. albicans. In kind it is cell-based, Candida albicans. As to conditions: @12.5 μg/ml. The method, then: (§1) Thirty-eight 96-well plates were prepared with the above samples and tested against both C. albicans and A. fumigatus at either 8 μg/ml or 12.5 μg/ml. Plates with high activity were retested at the same concentration to confirm activity.
(§2) These compounds have formulae where W′ is OH, V is 3′,4′-(1,1-dimethylpropyloxy) to form a dihydropyran series, and X is selected from 3,4-dimethoxyphenyl, 4-t-butylphenyl, 2(prop-2-enyloxy)phenyl, 3-phenoxyphenyl, 3-ethoxy-4-hydroxyphenyl, 6-cyclohexenyl, and norborn-4-yl.

Assay [2] deals with A. fumigatus. Description: Antifungal screen of matrix-synthesis aurones in 96-well plates, A. fumigatus. As to conditions: @12.5 μg/ml. Format: cell-based, Aspergillus fumigatus. On the procedure: as §1, §2
Assay [3] concerns Staphylococcus aureus KLE820. Description: Activity of selected aurones against Staphylococcus aureus KLE820. As to conditions: read-out: % Inhibition of growth at 10 ug/ml. Format: cell-based. An excerpt: Compounds described herein also have activity against bacteria.
The subject of assay [4] is Candida albicans (strain ATCC #90028). Description: Inhibition of Candida spp. culture (XTT). Format: cell-based. As to conditions: for C. albicans minimum inhibitory concentration (MIC) compared with reported ranges: assay validation; for MIC: Candida albicans, ATCC90028, C. albicans, XTT, 22 hours at 35° C., read-out: antifungal MIC. The method, then:
(§3) Candida albicans (strain ATCC #90028), Candida krusei (strain ATCC #90030), and Torulopsis (Candida) glabrata (strain ATCC #6258) were subcultured from cryopreserved stocks onto sabourand dextrose agar plates. Blastoconidia were suspended into RPMI-MOPS (media) and inoculated (500 cfu/well) into 96-well plates containing test compounds in a final volume of 100 μL/well. After 22 hours at 35° C., 25 μL of XTT (2,3-bis(2-methoxy-4-nitro-5-sulfophenyl)-5-[(phenylamino)carbonyl]-2H-tetrazolium hydroxide), (100 μg/mL) with PMS (phenazine methyl sulfate, 5 μM) were added to each well, followed by 2 hours of shaking. Growth was assessed spectrophotometrically by measuring the appearance of soluble formazan stain at 450 nm using an Emax microplate reader.
For orientation: Tetrazolium dyes change colour on reduction, which living cells bring about.

Assay [5] deals with nine isolates (Aspergillus and Candida). Description: Standard controls of the antifungal assays of Example 12. Format: cell-based. The method, then:
Test compounds were tested against nine isolates in an eight-point dose response assay ranging from 50 μg/ml to 0.39 μg/ml. Aspergillus MIC's (minimum inhibitory concentrations) were scored visually after 48 and 72 hours at 37° C. […] Amphotericin B (2.5 μg/ml) and 5-flucytosine (2.0 μg ml) were standard controls for each antifungal assay. […] The results are shown below in Table 4, MIC values in μg/ml after 72 hours. HFF toxicity was analyzed after a 24 hour incubation at 37° C. (5% CO2). MTS/PMS was added, and the sample absorbance was read at 450 nm.

For assay [6], the system named is Candida krusei (strain ATCC #90030). Briefly: Inhibition of Candida spp. culture (XTT). In kind it is cell-based. The following applies: Pichia kudriavzevii, ATCC90030, C. krusei, 22 hours at 35° C., read-out: antifungal MIC. The method, then: as §3
In assay [7] the test system is Torulopsis (Candida) glabrata (strain ATCC #6258). Description: Inhibition of Candida spp. culture (XTT). Format: cell-based. As to conditions: T. (C.) glabrata, 22 hours at 35° C., read-out: antifungal MIC. On the procedure: as §3
The test system of assay [8] is chitin synthase II (CS II). Description: Inhibition of chitin synthase, CS II only. In kind it is biochemical, C. albicans. The method, then: Plasma membrane was purified from C. albicans (ATCC #90028) according to Orlean, J. Biol. Chem. 262:5732-5-1987. To minimize proteolysis during plasma membrane preparation, 1% fetal calf serum was incorporated into the homogenization buffer. Plasma membrane was activated by trypsin (125 μg/mg protein) in the presence of 1.5 mM UDP-GLcNAc(c) at 25° C. for 5 minutes. The reaction was stopped by the addition of soybean trypsin inhibitor. The activated membranes (0.125 mg membrane protein/mL) were […], 40 mM GlcNAc, 4 mM ^14C-UDP-GlcNAc (specific: 0.25 mCi/mmol) (New England Nuclear Boston, Mass.) and plant extract (100 μg/mL). The incubation was carried out at 37° C. for 1 hour and terminated with the addition of trichloroacetic acid (10%). The reaction mixture was transferred to a pre-wetted glass fiber filter. The filter was washed with 4×200 μL of a 7:3 solution of 95% EtOH and 1 M acetic acid. The filter was dried under a heat lamp and counted in a Microbeta counter (Wallac, Gaithersburg, Md.) after the addition of 25 μL OPTIPHASE SUPERMIX™ (Wallac) scintillation fluid. Nikkomycin Z and Polyoxin D were used as positive controls (Calbiochem, San Diego, Calif.). Vehicle control was carried out with the same amount of DMSO (2%).
The SOP assay described above was modified to pH 7.5 and 5 mM MgCl2 (instead of CoCl2). […]

Assay [9] deals with T1, chitin synthase III (CS III) (Candida albicans, UniProt P30573).
T1 construct: endogenous in cells
T1 sequence (P30573 whole entry): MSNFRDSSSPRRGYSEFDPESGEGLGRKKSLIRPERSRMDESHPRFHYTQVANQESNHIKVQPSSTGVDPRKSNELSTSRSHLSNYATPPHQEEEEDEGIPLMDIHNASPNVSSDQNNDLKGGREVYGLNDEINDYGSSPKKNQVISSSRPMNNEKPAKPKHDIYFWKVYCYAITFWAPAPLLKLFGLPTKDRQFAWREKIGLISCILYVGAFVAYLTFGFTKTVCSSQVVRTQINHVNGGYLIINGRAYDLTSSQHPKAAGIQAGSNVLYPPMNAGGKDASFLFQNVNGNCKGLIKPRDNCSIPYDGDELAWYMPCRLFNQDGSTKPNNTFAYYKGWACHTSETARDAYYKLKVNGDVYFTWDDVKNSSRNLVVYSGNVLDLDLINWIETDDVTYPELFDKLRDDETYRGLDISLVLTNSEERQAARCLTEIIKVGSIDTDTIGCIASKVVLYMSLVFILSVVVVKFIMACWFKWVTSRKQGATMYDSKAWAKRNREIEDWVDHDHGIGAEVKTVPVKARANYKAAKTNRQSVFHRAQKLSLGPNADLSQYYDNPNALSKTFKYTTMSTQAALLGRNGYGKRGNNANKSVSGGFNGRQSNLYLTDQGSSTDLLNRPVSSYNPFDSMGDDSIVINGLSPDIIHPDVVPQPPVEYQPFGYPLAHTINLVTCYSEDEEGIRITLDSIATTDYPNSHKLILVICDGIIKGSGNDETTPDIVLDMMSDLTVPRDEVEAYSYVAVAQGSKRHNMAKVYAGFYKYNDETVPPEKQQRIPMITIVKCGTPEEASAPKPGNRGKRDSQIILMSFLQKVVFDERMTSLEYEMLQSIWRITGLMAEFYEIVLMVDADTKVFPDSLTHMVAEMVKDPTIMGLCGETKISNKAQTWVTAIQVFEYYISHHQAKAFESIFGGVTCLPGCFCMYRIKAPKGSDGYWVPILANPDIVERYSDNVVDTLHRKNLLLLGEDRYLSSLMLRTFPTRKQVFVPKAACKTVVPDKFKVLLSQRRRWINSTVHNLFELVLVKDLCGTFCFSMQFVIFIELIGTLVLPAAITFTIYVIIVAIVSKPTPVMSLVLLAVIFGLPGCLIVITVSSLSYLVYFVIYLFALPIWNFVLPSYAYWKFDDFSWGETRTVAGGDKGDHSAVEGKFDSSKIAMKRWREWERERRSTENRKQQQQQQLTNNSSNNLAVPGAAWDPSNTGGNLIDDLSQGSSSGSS
Description: Inhibition of chitin synthase, CS III only. Format: biochemical, C. albicans. On the procedure:
Plasma membrane was purified from C. albicans (ATCC #90028) according to Orlean, J. Biol. Chem. 262:5732-5-1987. To minimize proteolysis during plasma membrane preparation, 1% fetal calf serum was incorporated into the homogenization buffer. Plasma membrane was activated by trypsin (125 μg/mg protein) in the presence of 1.5 mM UDP-GLcNAc(c) at 25° C. for 5 minutes. The reaction was stopped by the addition of soybean trypsin inhibitor. The activated membranes (0.125 mg membrane protein/mL) were then assayed in a total of 50 μL reaction mixture containing 50 mM Tris-HCl (pH 8.0) 3 mM CoCl2, 40 mM GlcNAc, 4 mM ^14C-UDP-GlcNAc (specific: 0.25 mCi/mmol) (New England Nuclear Boston, Mass.) and plant extract (100 μg/mL). The incubation was carried out at 37° C. for 1 hour and terminated with the addition of trichloroacetic acid (10%). The reaction mixture was transferred to a pre-wetted glass fiber filter. The filter was washed with 4×200 μL of a 7:3 solution of 95% EtOH and 1 M acetic acid. The filter was dried under a heat lamp and counted in a Microbeta counter (Wallac, Gaithersburg, Md.) after the addition of 25 μL OPTIPHASE SUPERMIX™ (Wallac) scintillation fluid. Nikkomycin Z and Polyoxin D were used as positive controls (Calbiochem, San Diego, Calif.). Vehicle control was carried out with the same amount of DMSO (2%). […]

For assay [10], the system named is Candida albicans strain #64, sensitive to fluconazole. Description: Fluconazole-sensitive candidiasis in mice. In kind it is in vivo. The method, then:
Immunocompetent mice (ICR, Sprague-Dawley, Indianapolis, Ind.) were infected with a pathogenic strain (strain #64) of Candida albicans which is sensitive to fluconazole. […] […] […] In addition, the organ fungal load (in CFU) was measured at day 30.

The subject of assay [11] is C. albicans UTR-14, fluconazole-resistant clinical isolate. Description: Fluconazole-resistant candidiasis in mice. In kind it is in vivo.
The test system of assay [12] is C. albicans. Briefly: Inhibition of C. albicans with drug combinations. In kind it is cell-based, Candida albicans. The method, then:
as §3
Formula (V) was tested in combination with known antifungal agents amphotericin B and fluconazole. A 10 mg/ml stock solution of formula (V) was diluted in 100% DMSO and stored at −80° C. Fluconazole and Amphotericin B were similarly prepared and stored as a 8 mg/ml stock solution, and a 1.25 mg/ml stock solution, respectively. Each known antifungal agent was added (2 μl/well), then 2 μl/well of the formula (V) solution was added to the designated wells. The remainder of the experiment follows Example 21.

The structures appear in SMILES notation. pIC50: −log10 of the molar value.

The text below walks through data of patent US20020086895A1, “Methods of treating fungal infections” (priority 1985, published 2002).

On to `Cc1cc(C)c(C=C2Oc3cc(O)cc(O)c3C2=O)c(C)c1`, for which the CA percent inhibition in assay [1] is listed as 6%. The same compound returned an AF percent inhibition in [2] of 48%.
For the compound `Cc1cc(C)cc(C=C2Oc3cc(O)cc(O)c3C2=O)c1`, the CA percent inhibition result in assay [1] was “CA 4% AF”. The AF percent inhibition result in [2] was “#17% @12.5 μg/ml”.
In the case of `COc1ccc(/C=C2\Oc3cc(O)c(C/C=C/c4ccccc4)c(O)c3C2=O)cc1`, the inhibition at 10 µg/mL in [3] is 83%.
As for `O=C1/C(=C/c2cc([N+](=O)[O-])ccc2O)Oc2cc(O)c(Cc3ccccc3)c(O)c21`, in [3], the inhibition at 10 µg/mL amounted to 100%.
Regarding `O=C1/C(=C/c2c(Br)cc(Br)c(O)c2Br)Oc2cc(O)c(Cc3ccccc3)c(O)c21`, in assay [3], the inhibition at 10 µg/mL was found to be 100%.
As for `O=C1/C(=C/c2cc(Cl)cc(Cl)c2O)Oc2cc(O)c(Cc3ccccc3)c(O)c21`, the inhibition at 10 µg/mL in assay [3] worked out at 100%.
Consider `CCCCCOc1ccc(/C=C2\Oc3cc(O)cc(O)c3C2=O)cc1`, for which the inhibition at 10 µg/mL in [3] was determined as 98.6%.
As for `C=CCc1c(O)cc2c(c1O)C(=O)/C(=C/c1ccc(-c3ccccc3C(F)(F)F)o1)O2`, the inhibition at 10 µg/mL in [3] came out at 76.5%.
As for `Nc1nc(=O)[nH]cc1F` [5-flucytosine], the “C. albicans minimum inhibitory concentration (MIC) compared with reported ranges” value in assay [4] is given as “within reported ranges”. For the same compound, the “inhibition by standard control” value in assay [5] (2.0 μg ml) is “total inhibition”.
Turning to `C[C@@H]1[C@H](O)[C@@H](C)/C=C/C=C/C=C/C=C/C=C/C=C/C=C/[C@H](O[C@@H]2O[C@H](C)[C@@H](O)[C@H](N)[C@@H]2O)C[C@@H]2O[C@](O)(C[C@@H](O)C[C@@H](O)[C@H](O)CC[C@@H](O)C[C@@H](O)CC(=O)O[C@H]1C)C[C@H](O)[C@H]2C(=O)O` [Amphotericin B], the “C. albicans minimum inhibitory concentration (MIC) compared with reported ranges” value in assay [4] is “within reported ranges”. Further, the “inhibition by standard control” value in [5] (2.5 μg/ml) was “total inhibition”.
One may read the MIC as the smallest concentration in the dilution series that meets the test's criterion for growth inhibition. As a reminder, the pIC50 is −log10 of the IC50, conventionally taken in molar units. Higher therefore signals a small IC50. Turning to `CC(C)=CCc1c(O)cc2c(c1O)C(=O)C(=Cc1ccc(O)c(O)c1)O2` [Formula (V), 5-prenylaureusidin], the results for the MIC in assay [4], in [6] and in assay [7] were 12.5 µg/mL, 6.25 µg/mL and 6.25 µg/mL, respectively. The figures for the pIC50 in assay [8] and in [9] were 3.65 and 3.97, respectively. Also, the “percent survival after 30 days” value in assay [10] (20 mg per kg body weight i.p., once a day for 10 days) was “about 70%”; in assay [10] (40 mg per kg body weight p.o., once a day for 10 days), “about 60%”. In assay [10] (day 30), the “fungal load reduction in each organ” value is “over 99%”. Further, in assay [11] (40 mg per kg body weight p.o.), the “percent survival after 20 days” value is listed as “about 80%”. The “combination effect with Amphotericin B” value in assay [12] (in combination with Amphotericin B) is “apparent synergy”. Also, in assay [12] (in combination with fluconazole), the “combination effect with fluconazole” value was “apparent additivity”.
Regarding `CC(C)=CCc1c(O)cc2c(c1O)C(=O)/C(=C\c1cc(O)c(O)cc1-c1c(O)cc3c(c1O)C(=O)/C(=C\c1ccc(O)c(O)c1)O3)O2` [Formula (VI)], the figures for the MIC in assay [4], in assay [6] and in assay [7] were 25 µg/mL, 7.48 µg/mL and 1.74 µg/mL, respectively.
For `C[C@@H]([C@H](N)C(=O)N[C@H](C(=O)O)[C@H]1O[C@@H](n2ccc(=O)[nH]c2=O)[C@H](O)[C@@H]1O)[C@H](O)c1ccc(O)cn1` [Nikkomycin Z, reference compound], the “C. albicans minimum inhibitory concentration (MIC) compared with reported ranges” value in assay [4] is recorded as “within reported ranges”. Besides, in assay [8] (10 μM Nikkomycin Z, pH 7.5, 5 mM MgCl2), the “CS II remaining” value is recorded as 75%.
`CC(C)=CCc1c(O)cc2c(c1O)C(=O)C(=Cc1ccc(O)c(O)c1)O2` [drawing 36+drawing 32] had a CA percent inhibition in assay [1] of 92%. In addition, the AF percent inhibition in assay [2] was found to be 0%.
`OC(Cn1cncn1)(Cn1cncn1)c1ccc(F)cc1F` [fluconazole, reference compound]: the “C. albicans minimum inhibitory concentration (MIC) compared with reported ranges” value in assay [4] is “within reported ranges”. For the same compound, the “percent survival after 30 days” value in assay [10] (40 mg per kg body weight, twice a day) was “about 30%”. The “percent survival after 20 days” value in [11] (40 mg per kg body weight p.o. (twice daily)) is reported as 0%.
`NC(=O)OC[C@H](O)[C@@H](O)[C@H](N)C(=O)N[C@H](C(=O)O)[C@H]1O[C@@H](n2cc(C(=O)O)c(=O)[nH]c2=O)[C@H](O)[C@@H]1O` [polyoxin D]: in assay [4], the “C. albicans minimum inhibitory concentration (MIC) compared with reported ranges” value was “within reported ranges”.
